Test results published in article PMC3793977, “High-Throughput Screening (HTS) and Hit Validation to Identify Small Molecule Inhibitors with Activity against NS3/4A proteases from Multiple Hepatitis C Virus Genotypes” (PLoS ONE, 2013).

Columns and labels:
[1] = target: T1, full-length NS3/4A protease (genotype 1b) (Hepatitis C virus genotype 1b, UniProt Q9WMX2); experiment: biochemical; conditions: IC50 Full-length NS3/4A, purified full-length NS3/4A, genotype 1b wild-type
T1 construct: wild-type HCV NS3 (HCV polyprotein residues 1027–1657); His-tag (N); made in house
T1 sequence (Q9WMX2 1658-1711): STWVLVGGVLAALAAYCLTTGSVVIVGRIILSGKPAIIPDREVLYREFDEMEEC
T1 sequence (Q9WMX2 1027-1657): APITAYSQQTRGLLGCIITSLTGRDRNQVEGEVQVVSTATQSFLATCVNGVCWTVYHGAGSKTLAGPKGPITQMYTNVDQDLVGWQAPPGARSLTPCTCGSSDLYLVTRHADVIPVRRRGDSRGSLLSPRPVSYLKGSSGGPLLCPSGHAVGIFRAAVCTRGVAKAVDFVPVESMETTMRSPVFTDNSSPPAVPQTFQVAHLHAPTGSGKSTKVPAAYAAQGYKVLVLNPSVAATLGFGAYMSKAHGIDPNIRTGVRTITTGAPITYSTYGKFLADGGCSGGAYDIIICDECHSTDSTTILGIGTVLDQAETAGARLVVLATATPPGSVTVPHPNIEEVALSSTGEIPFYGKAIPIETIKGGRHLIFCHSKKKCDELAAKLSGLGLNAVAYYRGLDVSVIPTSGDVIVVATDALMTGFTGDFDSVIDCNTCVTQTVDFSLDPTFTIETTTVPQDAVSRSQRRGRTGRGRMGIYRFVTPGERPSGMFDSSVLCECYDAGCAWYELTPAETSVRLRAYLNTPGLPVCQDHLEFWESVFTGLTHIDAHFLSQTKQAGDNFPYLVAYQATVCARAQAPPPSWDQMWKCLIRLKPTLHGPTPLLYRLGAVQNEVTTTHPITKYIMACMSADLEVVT
Description: All assays were done in duplicate in black 384-well plates (Matrix Technologies). […] 200 nL of 10 mM compound (50 µM final concentrations) were then added and incubated for 5 minutes. Enzyme reactions were initiated with 10 µL of substrate Ac-DE-Dap(QXL520)-EE-Abu-ψ-[COO]AS-C(5-FAMsp)-NH2 (Anaspec) (1 µM final concentration), incubated for 6 minutes, and quenched by 10 µL of 10% SDS as a stop solution. Fluorescence intensity was monitored with a POLARstar OPTIMA microplate reader (BMG LABTECH). Each plate contained a total of 32 positive and 32 negative controls.
A series of compound concentrations (0 to 200 µM final concentration at 2-fold serial dilution) in 100% DMSO were prepared in a 384-well plate. 20 µL of enzyme solution was distributed to wells, and 0.5 µL of varying concentration of compounds were added and incubated for 5 minutes. The enzyme reaction was initiated by adding 5 µL of the substrate, and its activity was continuously monitored for 6 minutes. The IC50 values were calculated by fitting with the Hill equation (1), with OriginPro 8.5 (OriginLab, Inc.) where y is percent inhibition, x is inhibitor concentration, n is the slope of the concentration–response curve (Hill slope), and Vmax is maximal inhibition from two to four independent assays. [drawing 1] (1)

full-length NS3/4A = target: T2, full-length NS3/4A (Hepatitis C virus genotype 1b, UniProt Q9WMX2); experiment: SPR binding assay (dissociation equilibrium constant KD); conditions: 0–200 µM compound, single referenced with blank (ethanolamine)
T2 construct: wild-type HCV NS3 (HCV polyprotein residues 1027–1657); His-tag (N); made in house
T2 sequence (Q9WMX2 1658-1711): as the sequence (Q9WMX2 1658-1711) above
T2 sequence (Q9WMX2 1027-1657): as the sequence (Q9WMX2 1027-1657) above
Description: The full-length NS3/4A enzyme was prepared in a storage buffer (50 mM HEPES, pH 7.6, 500 mM NaCl, 1 mM DTT, 0.2% Triton X-100, and 20% glycerol) and immobilized on a CM5 sensor chip using standard amine-coupling at 25°C with running buffer HBS-P (10 mM HEPES, 150 mM NaCl, 0.05% surfactant P-20, pH 7.4) using a Biacore T100 instrument. Flow channels 1 and 3 were activated by 1-ethyl-3-(3-dimethylaminopropyl) carbodiimide hydrocholoride (EDC)/N-hydroxy succinimide (NHS) mixture, and the activated surface was blocked by ethanolamine (pH 8.5) as controls. The NS3/4A enzyme was diluted in 10 mM sodium acetate (pH 5.0), and immobilized to flow channel 4 after sensor surface activation with EDC/NHS with a 7 min injection followed by ethanolamine blocking on unoccupied surface area. NS3/4A immobilization level was ∼8,500 response units (RU). An unrelated reference protein (92 kDa) was also immobilized to flow channel 2 as another control to be compared with NS3/4A (74.6 kDa). Fifteen initial hit compounds were prepared as 10 mM DMSO stock solutions. Compound solutions with a series of increasing concentrations (0–200 µM at 1.5-fold dilution) were applied to all four channels at a 10 µL/min flow rate at 25°C. Sensorgrams were analyzed using Biaevaluation software 2.0.3, and response unit difference (ΔRU) values at each concentration were measured during the equilibration phase. Data were either single referenced with a blank (enthanolamine) or double referenced with both blank and reference protein RU values. SigmaPlot 11.0 was used to fit the data to a single rectangular hyperbolic curve to determine KD values. The hyperbola function, y = ymax·x/(KD+x), was used to plot response units and corresponding concentration, where y is the response, ymax is the maximum response, and x is the compound concentration.

Trypsin = target: T3, Trypsin (Homo sapiens, UniProt P07477); experiment: Inhibitor selectivity assay, trypsin (fluorometric); type: biochemical
T3 construct: purchased Sigma
Description: (§1) To test for selectivity, two human serine proteases, Trypsin and Chymotrypsin (Sigma), were tested with the top two hit compounds from HTS using a fluorometric assay. The fluorogenic substrates used in this study were N-benzoyl-L-Arg-7-amido-4-methylcoumarin (Sigma) and N-succinyl-Ala-Ala-Phe-7-amido-4- methylcoumarin (Sigma) for trypsin and chymotrypsin, respectively. All assays were performed in 384-well black plates (Corning) in a total volume of 24 µL of PBS (pH 7.4) buffer containing 0.01% Triton, 0.1 mg/mL BSA, and 2 mM GSH in triplicate. A series of compound concentrations (0 to 200 µM final concentration at 2-fold serial dilution) in 100% DMSO was prepared in a 384-well plate. 20 µL of trypsin (0.01 mg/mL) and chymotrypsin (0.0001 mg/mL) solutions were distributed into wells, and 0.5 µL of varying concentration of compounds were added and incubated for 10 minutes. The enzyme reaction was initiated by adding 5 µL of the substrate (50 µM final concentration), and fluorescence intensity was continuously monitored at excitation/emission wavelengths of 350 nm/460 nm for 10 minutes.

Chymotrypsin = target: T4, Chymotrypsin (Homo sapiens, UniProt P17538); experiment: Inhibitor selectivity assay, chymotrypsin (fluorometric); type: biochemical
T4 construct: purchased Sigma
T4 sequence (P17538 19-263): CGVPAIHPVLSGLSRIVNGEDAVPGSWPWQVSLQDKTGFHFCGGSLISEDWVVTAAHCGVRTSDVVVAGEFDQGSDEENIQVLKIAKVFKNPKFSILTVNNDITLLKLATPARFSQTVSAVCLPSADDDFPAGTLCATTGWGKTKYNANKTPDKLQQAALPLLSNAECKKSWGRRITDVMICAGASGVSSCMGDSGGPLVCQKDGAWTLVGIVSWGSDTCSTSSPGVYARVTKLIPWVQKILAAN
Description: as §1

[2] = Microsomal stability assay; type: in vitro ADME, mouse; conditions: Balb/c, mouse, microsomes, pH 7.4
Description: A typical incubation mixture (100 µL total volume) for the metabolic stability studies contained 1 µM (final concentration) test compounds, 0.5 mg/mL microsomal protein (pooled Balb/c mouse liver microsomes prepared as described previously), 100 mM Tris-HCl buffer (pH7.4), and NADPH-generating system (5 mM isocitric acid, 0.2 unit/mL isocitric acid dehydrogenase, 5 mM magnesium chloride, 1 mM NADP^+). After pre-incubation at 37°C for 5 minutes, the reactions were started by addition of NADP^+ and further incubated for another 0, 5, 10, and 20 minutes. For control experiments, NADPH and/or liver microsomes were omitted from these incubations. The reactions were terminated by adding 100 µL ice-cold acetonitrile containing phenytoin (1 µM) as an internal standard and kept on ice for 30 minutes, followed by centrifugation at 16,100 g for 15 minutes to obtain the supernatant. Aliquots (5 µL) were then analyzed for substrate disappearance using liquid chromatography-tandem mass spectrometry (Agilent 1200 HPLC interfaced with Applied Biosystems Qtrap 3200) equipped with an electrospray ion source. Chromatographic separation was carried out with a Waters XTerra MS C18 column (2.1×50 mm, 3.5 µm; Agilent Technologies, Santa Clara, CA). The mobile phases consisted of solvent A (0.1% (v/v) aqueous formic acid) and solvent B (acetonitrile). A 250 µL/min flow rate gradient was developed for each test compound over 10 minutes (Table S2 in File S1). Mass detection of test substrates and internal standard were followed in a positive ion mode by examining multiple reaction monitoring (MRM) pairs. The spraying needle voltage was set at 5000 V. Curtain gas was set at 20; gas 1 and gas 2 were set at 45 and 50, respectively; collision assisted dissociation gas was at medium; and the source heater probe temperature was at 500°C. The test compounds were quantified by comparing the ratio of ion currents obtained for the substrates and an internal standards calibration curve. Data acquisition and processing were accomplished using Analyst software (version 1.4.1; Applied Biosystems). Apparent half-lives (t1/2) for the disappearance of parent drugs were calculated from the pseudo-first-order rate constants (ke) obtained by linear regression of plots of log [drug remaining] versus time (GraphPad Prism 5 software, La Jolla, CA) using the equation: t1/2 = 0.693/ke.

With `O=C1c2c(O)ccc(O)c2C(=O)c2c(NCCNCCO)ccc(NCCNCCO)c21` [Compound 4, mitoxantrone, reference compound] the IC50 [1] was 3.1 ± 0.1 µM, the “SPR binding pattern to NS3/4A” value (full-length NS3/4A) was “non-specific binding patterns” and the inhibition at 100 µM (Trypsin; 100 µM compound, read-out: Trypsin % Inh at 100 µM) was 22%. For the same molecule, the IC50 (Trypsin; human trypsin) was greater than 100 µM, the inhibition at 100 µM (Chymotrypsin; 100 µM compound, read-out: Chymotrypsin % Inh at 100 µM) was 0% and the IC50 (Chymotrypsin; human chymotrypsin) was greater than 100 µM. The microsomal stability ([2]; 1 µM) was 25 min and the half-life at 1 µM [2] was 25.4 min.
